In US4690937A, “Anti-hypertensive agents” (University of Miami, priority 1979, dated 1987):
pIC50: −log10 of the molar value. Read-outs that look alike come from different tables or passages of the source. Residues, ends and D or L forms follow the SMILES beside them. *: point of attachment. Bz = O=C(c1ccccc1)*

What was measured:
[1] = biological target: T1, ACE (Homo sapiens, UniProt P12821); conditions: previously disclosed compounds of copending applications, read-out: I50, cited from earlier work
T1 construct: same enzyme (human urinary ACE); from tissue; host or cells: human urine (purified as described by Ryan et al., Tissue and Cell 10, 555 (1978))
T1 sequence (P12821 30-1232 limits assumed): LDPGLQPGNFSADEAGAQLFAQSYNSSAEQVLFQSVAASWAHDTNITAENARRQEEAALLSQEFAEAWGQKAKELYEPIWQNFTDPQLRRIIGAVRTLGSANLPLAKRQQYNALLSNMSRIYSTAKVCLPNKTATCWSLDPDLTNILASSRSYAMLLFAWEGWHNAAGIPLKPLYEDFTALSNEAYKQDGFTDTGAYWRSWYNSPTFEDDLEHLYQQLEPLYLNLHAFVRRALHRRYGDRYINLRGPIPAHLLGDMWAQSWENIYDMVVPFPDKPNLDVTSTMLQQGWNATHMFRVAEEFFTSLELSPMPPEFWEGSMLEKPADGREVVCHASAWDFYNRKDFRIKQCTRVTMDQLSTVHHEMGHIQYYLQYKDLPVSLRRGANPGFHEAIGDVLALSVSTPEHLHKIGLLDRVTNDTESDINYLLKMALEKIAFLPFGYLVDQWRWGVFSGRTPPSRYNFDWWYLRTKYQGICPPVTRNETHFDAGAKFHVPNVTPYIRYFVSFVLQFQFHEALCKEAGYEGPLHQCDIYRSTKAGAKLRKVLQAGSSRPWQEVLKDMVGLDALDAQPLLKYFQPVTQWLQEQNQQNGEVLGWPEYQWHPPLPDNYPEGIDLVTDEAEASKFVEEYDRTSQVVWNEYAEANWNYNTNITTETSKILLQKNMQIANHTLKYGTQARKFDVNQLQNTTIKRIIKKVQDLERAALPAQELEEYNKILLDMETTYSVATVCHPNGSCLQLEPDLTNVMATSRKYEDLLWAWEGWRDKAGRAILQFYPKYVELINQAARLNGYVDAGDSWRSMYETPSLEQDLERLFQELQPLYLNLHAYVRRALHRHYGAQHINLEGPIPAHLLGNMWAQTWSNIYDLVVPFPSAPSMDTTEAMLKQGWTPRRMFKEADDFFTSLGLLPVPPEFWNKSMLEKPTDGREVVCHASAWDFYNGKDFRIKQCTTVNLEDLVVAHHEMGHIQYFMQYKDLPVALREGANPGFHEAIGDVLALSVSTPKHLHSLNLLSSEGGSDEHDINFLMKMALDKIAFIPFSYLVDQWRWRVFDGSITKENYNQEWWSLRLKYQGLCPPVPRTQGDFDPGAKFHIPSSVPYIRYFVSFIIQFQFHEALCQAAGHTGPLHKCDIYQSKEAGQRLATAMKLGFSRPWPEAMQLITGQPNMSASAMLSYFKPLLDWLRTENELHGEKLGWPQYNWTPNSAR

[2] = biological target: T1, ACE; assay: ACE activity assay in vitro (I50, hydrolysis of [3H]-Benzoyl-GlyHisLeu); assay type: biochemical
Description: These factors include the source of enzyme, its purity, the substrate used and its concentration, and the composition of the assay buffer. All I50 data reported herein have been performed with the same assay system and same enzyme (human urinary ACE) and with an approximately 1/2 Km level of substrate and are therefore internaly consistent.
To initiate the assay, 40 μl of enzyme and 10 μl of water or inhibitor dissolved in water were preincubated for five minutes at 37° C. […] To terminate the reaction, 1 ml of 0.1M HCl was added, following which 1 ml of ethyl acetate was added. The mixture was agitated on a rotary mixer and centrifuged briefly to separate the phases.
An aliquot, 500μl, of the ethyl acetate layer was transferred to a liquid scintillation vial containing 10 ml of Riafluor, trademark New England Nuclear Corporation, Boston, Mass. For determination of I50 values, enzyme activity in the presence of inhibitor at a series of different concentrations was compared to activity in the absence of inhibitor.

[3] = test system: mean arterial blood pressure response to angiotensin I; assay: Oral effectiveness: blood pressure response to angiotensin I in anesthetized rats; assay type: in vivo; conditions: rat, oral 20 μmol/kg, -5 min (pre-dose control, 25 mm Hg)
Description: (§1) Rats (210-290 g body weight) were fasted overnight and then anesthetized with intraperitoneal pentobarbital, 50-60 mg/kg. Tracheostomy was performed and the animals were ventilated mechanically. A cannula was inserted into a femoral vein for injection of angiotensin I, and a second cannula was inserted into a common carotid artery for direct measurement of arterial blood pressure. Heparin, 1,000 units, was injected via the femoral vein to prevent coagulation. Blood pressure was measured with a pressure transducer connected to a polygraph. The rats were injected with […] of angiotensin I in 20μl of 0.9 g % NaCl; an amount of angiotensin I sufficient to raise mean arterial blood pressure by 25 mm Hg. After the responsiveness of a given rat to angiotensin I was established, the named compound at 20 μmol/kg (drug dissolved in 0.15 ml of H2 O plus 10μl of 1 N NaHCO3), was given via a stomach tube. At timed intervals, the effects of 400 ng/kg of angiotensin I on mean arterial blood pressure were tested.

[4] = test system: mean arterial blood pressure response to angiotensin I; assay: Intravenous effectiveness: blood pressure response to angiotensin I in anesthetized rats; assay type: in vivo; conditions: rat, in words
Description: as §1, with “tested. Results are shown below:” for “tested.”
Anesthetized rats were prepared as described in Example 18. The named compound was administered intravenously via a femoral vein, at the stated dose, in 15 μl of 0.01 N sodium bicarbonate. […] The time required for recovery of one half the lost responsiveness to angiotensin I, following injection of the named compound, is designated t1/2. […]

[5] = test system: ACE; conditions: disulfide formed on standing of aqueous solution; cited from earlier work

O=C(N[C@@H](Cc1ccccc1)C(=O)SCCC(=O)N1CCC[C@H]1C(=O)O)c1ccccc1
pIC50 ([1]; approximate): ~6.15

CC(C)C[C@H](NC(=O)[C@H](Cc1cnc[nH]1)NC(=O)CNC(=O)c1ccccc1)C(=O)O [Benzoyl-GlyHisLeu, reference compound] (Bz-Gly-His-Leu-OH)
Km ([2]; substrate Benzoyl-GlyHisLeu, 0.05M Hepes pH 8.0, 0.1M NaCl, 0.75M Na2 SO4): ~200 µM

CC(SC(=O)[C@H](Cc1ccccc1)NC(=O)c1ccccc1)C(=O)N1CC=C[C@H]1C(=O)O (stereo partly drawn) [N-(2-benzoylphenylalanylthiopropanoyl)-L-3,4-dehydroproline]
pIC50 ([1]; for racemic compound): 8.52

C[C@H](CSC(=O)[C@H](Cc1c[nH]c2ccccc12)NC(=O)c1ccccc1)C(=O)N1CCC[C@H]1C(=O)O [N^α -[3-(Nα-benzoyl-L-tryptophylthio)-2-D-methylpropanoyl]-L-proline]
pIC50 ([2]; ACE purified from human urine, pH 8.0, 37° C., Benzoyl-GlyHisLeu 1×10^-4 M): 8.03 | Blood Pressure Response to 400 ng/kg of Angiotensin I [3]: 100 % of Control | Response to intravenous administration (responsiveness to Angiotensin I, 400 ng/kg) [4]: rapid decrease in responsiveness to Angiotensin I, 400 ng/kg, followed by a gradual recovery to the pretreatment level of responsiveness

C[C@H](CSSC[C@@H](C)C(=O)N1CCC[C@H]1C(=O)O)C(=O)N1CCC[C@H]1C(=O)O [disulfide]
ACE inhibition by the disulfide dimer [5]: largely inactive as an inhibitor
